Patent publication US8969413B2
Where two headings read alike, the source gives them in different places.

Key:
Mice [1] = assay: corneal kindling; assay type: in vivo
Text: Mice are kindled electrically with 3 sec stimulation, 8 mA, 60 Hz, and corneal electrodes to a criterion of 10 consecutive Stage 5 seizures (facial clonus and head nodding progressing to forelimb clonus, and finally rearing and falling accompanied by a generalized clonic seizure as described by Racine). Stage 5 is generally reached after twice daily stimulation for 8 days. With continued stimulation once a day, animals usually progress to a reproducible Stage 5 after 10-14 additional days. At least 72 hours after the mice have been kindled, the test substance is administered either i.p. or p.o. and, at the previously determined TPE, each animal is given the electrical stimulus indicated above. Following stimulation, the animals are observed for the presence or absence of the rearing and falling criteria of a Stage 5 seizure. Treated animals not displaying a Stage 3, 4, or 5 seizure are considered protected. The dose of the test substance is varied between the limits of 0 and 100% efficacy, and the ED50 (mean effective dose) and 95% confidence intervals calculated by probit analysis. Mean values and the S.E.M. are calculated for the length of clonus and seizure duration and p values are determined by the Student's t-test

Rat = assay: subcutaneous Metrazol seizure threshold test (scMET); assay type: in vivo; conditions: 7 days IP, 20 mg/kg dose only, Metrazol 70 mg/kg
Method: Subcutaneous injection of the convulsant Metrazol produces clonic seizures in laboratory animals. […] Animals are pretreated with various doses of the test compound given by i.p. injection. At the previously determined TPE of the test compound, the dose of Metrazol which will induce convulsions in 97% of animals (CD97; 85 mg/kg mice) is injected into a loose fold of skin in the midline of the neck. The animals are placed in isolation cages to minimize stress (Swinyard et al, 1961) and observed for the next 30 minutes for the presence or absence of a seizure. An episode of clonic spasms, approximately 3-5 seconds, of the fore and/or hindlimbs, jaws, or vibrissae is taken as the endpoint.

Sprague-Dawley rats = conditions: for time spent in chamber, first printed value / time spent in chamber, second printed value: 1.0 mg/kg i.p.
cortical neurons = assay: [3H]GABA uptake in cultured cortical neurons; assay type: cell-based; conditions: Mus musculus, Cortical neurone; read-out: neuron uptake IC50
Method: Cortical neurons were cultured essentially as previously described by removing the neopallium of 15-day old NMRI embryos by dissection followed by mild trypsination. Hertz E, Yu A C H, Hertz L, Juurlink B H J and Schousboe A. Preparation of Primary Cultures of Mouse Cortical Neurons, in A Dissection and Tissue Culture Manual of the Nervous System (Shahar A, de Vellis J, Vernadakis A and Haber B eds) pp 183-186, Alan R. Liss, Inc., New York, 198. The neurons were cultured in 10% fetal calf serum and, after 48 h, cytosine arabinoside was added to a final concentration of 20 μM to prevent glial proliferation. Four cultures of stably transfected Human Embryonic Kidney (HEK)-293 cells expressing mGAT1-4 were prepared by the method previously reported. […] J Pharmacol Exp Ther. 2002, 302, 636-644 The stable cell lines are under the selection pressure of blasticidin-S at 5 μg/mL. Determinations of the IC50 values were conducted as described earlier. […] Radioactivity was measured using Microscint™ 20 scintillation fluid (PerkinElmer) and a Packard TopCount microplate scintillation counter.

Mice [2] = assay: subcutaneous picrotoxin (scPIC); assay type: in vivo
Method: (§1) Bicuculline (Bic) and Picrotoxin (Pic) are chemoconvulsants that cause clonic seizures in a manner similar to Metrazol (see scMET test). […] Therefore, as much as possible it is useful to differentiate novel AEDs pharmacologically. […]. At a previously determined time of peak effect (TPE), the animals are given a subcutaneous injection of either of the noted chemo-convulsants using the convulsive dose (CD97—a dose of 2.7 or 2.5 mg/kg, for Bic and Pic, respectively). The experimental animals are placed in isolation cages to minimize possible crowding stresses (Swinyard et al., 1961) and observed for the next 30 minutes (for Bic) or 45 minutes (for Pic) for the presence or absence of a seizure. An episode of clonic spasms, approximately 3-5 seconds, of the fore and/or hindlimbs, jaws, or vibrissae is used as the experimental endpoint.

Mice [3] = assay: subcutaneous bicuculline (scBIC); assay type: in vivo; conditions: Single IP drug dose, 2.7 mg/kg BIC; from 10-200 mg/kg; inconclusive?
Method: as §1

[4] = cocaine/saline+compound pairings, cocaine 20 mg/kg
[5] = saline/Compound 2 (CPP-115) pairings

N[C@H]1C[C@@H](C(=O)O)CC1=C(F)F [CPP-115]
Corn. Kind. TPE (Mice [1]; Single IP drug dose, primed @ 8 mA, 60 Hz, 3 secs, for 8 days): TPE 4 hours
ED50 (Mice [1]; ip, 192 h, read-out: Corn. Kind. ED50): 20.1 mg/kg
scMET protection (Rat): No protection
expression of cocaine-induced CPP (Sprague-Dawley rats; 1.0 mg/kg i.p. 2.5 h before test, cocaine 20 mg/kg, listed as 2): blocked the expression of cocaine-induced CPP
effect on cocaine-induced CPP relative to vigabatrin (Sprague-Dawley rats; 1.0 mg/kg versus vigabatrin 300 mg/kg): 300 times
time spent in chamber, first printed value (Sprague-Dawley rats; [4]): 7.9 ± 1.5 min
time spent in chamber, second printed value (Sprague-Dawley rats; [4]): 7.1 ± 1.9 min
time spent in chamber, first printed value (Sprague-Dawley rats; [5]): 8.1 ± 3.2 min
time spent in chamber, second printed value (Sprague-Dawley rats; [5]): 6.9 ± 3.9 min
IC50 (cortical neurons): > 1000 µM
ED50 (Mice [2]; Mus musculus, ip, read-out: scPIC ED50): 60.7 mg/kg
scPIC TPE (Mice [2]; Single IP drug dose, 2.5 mg/kg PIC): TPE 2 hours
scBIC protected (Mice [3]): About 50% protected
